Assay results from the supplement of paper PMC10627819.

Tests used:
S. aureus DSM 20231 = experiment: Bliss interaction score (quartile over a dose matrix) (fitness difference); higher = more antagonism (negative = synergy)
In short: (§1)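 Fitness was derived from optical density at entry into stationary phase, divided by the robust mean of the no-drug wells on the same plate. That reading was taken as OD595, and the ratio was capped at 1. Single-drug fitness was inferred from the combination data. The Bliss score, observed fitness minus the expected product of single-drug fitness, was summarised as quartiles over technical, biological and donor/recipient replicates.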

S. pneumoniae D39V [1] = experiment: as above
In short: as §1

B. subtilis 168 [2] = experiment: as above
In short: as §1

S. aureus Newman = experiment: as above
In short: as §1

B. subtilis 168 [3] = experiment: fitness (endpoint OD595 vs no drug) (fraction); higher = more growth
In short: (§2)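 Volumes were 30 µl per well, or 55 µl for S. pneumoniae, in 384-well plates inoculated at OD595 0.01. Media were TSB, LB Lennox or CY at 37 °C, and OD595 was read every 30 min for 14 h with first-reading background subtraction. Fitness is the ratio of optical density at stationary-phase entry to the robust mean of no-drug controls. That ratio is capped at 1.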

S. pneumoniae D39V [4] = experiment: as above
In short: as §2
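Wherever Bliss interaction score (quartile over a dose matrix) is given: first quartile when negative (synergy) and third quartile when positive (antagonism).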

CN(C)C(=O)C(CCN1CCC(O)(c2ccc(Cl)cc2)CC1)(c1ccccc1)c1ccccc1 [Loperamide] + COc1cc(Cc2cnc(N)nc2N)cc(OC)c1OC [Trimethoprim]
Conditions | Bliss interaction score
B. subtilis 168 [2] | -0.102
S. aureus DSM 20231 | -0.0416
S. aureus Newman | 0.0605
S. pneumoniae D39V [1] | 0.274

fitness, B. subtilis 168 [3], one replicate
Conditions | partner 0.1 µg/mL | partner 0.125 µg/mL | partner 0.2 µg/mL | partner 0.4 µg/mL | partner 1 µg/mL | partner 2 µg/mL
first compound 25 µg/mL | 0.0203 | 0.525 | 0.0477 | 0.0288 | 0.0225 | 0.0222
first compound 50 µg/mL | 0.0097 | 0.0833 | 0.0381 | 0.0129 | 0.0319 | 0.0248
first compound 100 µg/mL | 0.0141 | 0.107 | 0.0463 | 0.0259 | 0.031 | 0.0361

fitness, B. subtilis 168 [3]
Conditions | first compound 50 µg/mL | first compound 100 µg/mL
partner 0.25 µg/mL | 0.201 | 0.0658
partner 0.5 µg/mL | 0.0275 | 0.0239

CN(C)C(=O)C(CCN1CCC(O)(c2ccc(Cl)cc2)CC1)(c1ccccc1)c1ccccc1 [Loperamide] + CN(N=O)C(=O)N[C@@H](C=O)[C@@H](O)[C@H](O)[C@H](O)CO [Streptozotocin]
Conditions | Bliss interaction score
B. subtilis 168 [2] | -0.0219
S. aureus DSM 20231 | 0.103
S. aureus Newman | 0.0514
S. pneumoniae D39V [1] | 0.0707

fitness, S. pneumoniae D39V [4]
Conditions | partner 1.2 µg/mL | partner 2.4 µg/mL | partner 4.8 µg/mL
first compound 17.14 µg/mL | 0.962 | 0.943 | 0.974
first compound 34.28 µg/mL | 0.956 | 0.982 | 0.978

fitness, one replicate
Conditions | first compound 20 µg/mL | first compound 25 µg/mL | first compound 40 µg/mL | first compound 50 µg/mL | first compound 68.57 µg/mL | first compound 80 µg/mL | first compound 100 µg/mL
B. subtilis 168 [3], partner 0.15 µg/mL | – | 0.843 | – | 0.0229 | – | – | 0.0221
B. subtilis 168 [3], partner 0.3 µg/mL | – | 0.802 | – | 0.0269 | – | – | 0.0127
B. subtilis 168 [3], partner 0.6 µg/mL | – | 0.821 | – | 0.025 | – | – | 0.02
S. pneumoniae D39V [4], partner 1.2 µg/mL | ≥ 1 | – | ≥ 1 | – | 0.971 | 0.0146 | –
S. pneumoniae D39V [4], partner 2.4 µg/mL | ≥ 1 | – | ≥ 1 | – | 0.929 | 0.0167 | –
S. pneumoniae D39V [4], partner 4.8 µg/mL | ≥ 1 | – | ≥ 1 | – | ≥ 1 | 0 | –

CCCCCCCCCC(=O)N[C@@H](Cc1c[nH]c2ccccc12)C(=O)N[C@H](CC(N)=O)C(=O)N[C@@H](CC(=O)O)C(=O)N[C@@H]1C(=O)NCC(=O)N[C@@H](CCCN)C(=O)N[C@@H](CC(=O)O)C(=O)N[C@H](C)C(=O)N[C@@H](CC(=O)O)C(=O)NCC(=O)N[C@H](CO)C(=O)N[C@@H]([C@H](C)CC(=O)O)C(=O)N[C@@H](CC(=O)c2ccccc2N)C(=O)O[C@@H]1C [Daptomycin] + CO[C@@H]1[C@@H](OC(N)=O)[C@@H](O)[C@H](Oc2ccc3c(O)c(NC(=O)c4ccc(O)c(CC=C(C)C)c4)c(=O)oc3c2C)OC1(C)C [Novobiocin]
Conditions | Bliss interaction score
B. subtilis 168 [2] | 0.0788
S. aureus DSM 20231 | 0.0439
S. aureus Newman | 0.0984
S. pneumoniae D39V [1] | 0.0661

fitness, B. subtilis 168 [3]
Conditions | first compound 0.125 µg/mL | first compound 0.25 µg/mL | first compound 0.5 µg/mL
partner 0.0125 µg/mL | 0.94 | 0.981 | 0.899
partner 0.025 µg/mL | 0.916 | 0.94 | 0.867
partner 0.05 µg/mL | 0.968 | 0.984 | 0.902

fitness, B. subtilis 168 [3], one replicate
Conditions | partner 0.05 µg/mL | partner 0.1 µg/mL | partner 0.125 µg/mL | partner 0.2 µg/mL | partner 0.25 µg/mL | partner 0.5 µg/mL
first compound 0.125 µg/mL | – | – | 0.958 | – | 0.954 | 0.649
first compound 0.25 µg/mL | – | 0.96 | ≥ 1 | 0.957 | ≥ 1 | 0.579
first compound 0.5 µg/mL | – | 0.94 | ≥ 1 | 0.936 | 0.965 | 0.288
first compound 1 µg/mL | 0.738 | 0.791 | – | 0.759 | – | –

C[C@H]1COc2c(N3CCN(C)CC3)c(F)cc3c(=O)c(C(=O)O)cn1c23 [Levofloxacin] + CO[C@@H]1[C@@H](OC(N)=O)[C@@H](O)[C@H](Oc2ccc3c(O)c(NC(=O)c4ccc(O)c(CC=C(C)C)c4)c(=O)oc3c2C)OC1(C)C [Novobiocin]
Conditions | Bliss interaction score
B. subtilis 168 [2] | -0.0305
S. aureus DSM 20231 | -0.0698
S. aureus Newman | -0.091
S. pneumoniae D39V [1] | -0.121

fitness, B. subtilis 168 [3], one replicate
Conditions | partner 0.05 µg/mL | partner 0.1 µg/mL | partner 0.125 µg/mL | partner 0.2 µg/mL | partner 0.25 µg/mL | partner 0.5 µg/mL
first compound 0.001 µg/mL | ≥ 1 | ≥ 1 | – | ≥ 1 | – | –
first compound 0.002 µg/mL | 0.929 | 0.952 | 0.908 | 0.933 | 0.874 | 0.493
first compound 0.0039 µg/mL | 0.965 | ≥ 1 | 0.839 | 0.928 | 0.808 | 0.505
first compound 0.0078 µg/mL | – | – | 0.864 | – | 0.808 | 0.457

fitness, B. subtilis 168 [3]
Conditions | first compound 0.0312 µg/mL | first compound 0.0625 µg/mL | first compound 0.125 µg/mL
partner 0.0125 µg/mL | 0.0275 | 0.0273 | 0.0195
partner 0.025 µg/mL | 0.0255 | 0.0301 | 0.0265
partner 0.05 µg/mL | 0.028 | 0.0286 | 0.0286
